#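 1) Cells in 96-well plates. 2) Compound, 48 h, 5 concentrations. 3) Linear interpolation between surrounding doses. 4) Unreached endpoint = highest concentration. At the TGI there is no net growth.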
# Experiments:
# Test in all cases: NCI-60 cell line screen, 48 h
# SR leukemia = system: SR leukemia
# DU-145 prostate = system: DU-145 prostate
# HOP-92 NSCLC = system: HOP-92 NSCLC
# KM12 colon = system: KM12 colon
# A498 renal = system: A498 renal
# K-562 leukemia = system: K-562 leukemia
# MOLT-4 leukemia = system: MOLT-4 leukemia
# TK-10 renal = system: TK-10 renal
# A549 NSCLC = system: A549 NSCLC
# UO-31 renal = system: UO-31 renal
# RPMI-8226 leukemia = system: RPMI-8226 leukemia
# PC-3 prostate = system: PC-3 prostate
# BT-549 breast = system: BT-549 breast
# SF-268 CNS = system: SF-268 CNS
# SF-295 CNS = system: SF-295 CNS
# SF-539 CNS = system: SF-539 CNS
# T-47D breast = system: T-47D breast
# COLO 205 colon = system: COLO 205 colon
# HCC-2998 colon = system: HCC-2998 colon
# NCI-H522 lung = system: NCI-H522 lung
structure (smiles),measurement,setting,value
O=c1[nH]c(=O)n2n1C1C=CC2CC1,TGI,SR leukemia,> 100 µM
same,TGI,DU-145 prostate,> 100 µM
same,TGI,HOP-92 NSCLC,> 100 µM
same,TGI,KM12 colon,> 100 µM
same,TGI,A498 renal,> 100 µM
same,TGI,K-562 leukemia,> 100 µM
same,TGI,MOLT-4 leukemia,> 100 µM
same,TGI,TK-10 renal,> 100 µM
same,TGI,A549 NSCLC,> 100 µM
same,TGI,UO-31 renal,> 100 µM
same,TGI,RPMI-8226 leukemia,> 100 µM
same,TGI,PC-3 prostate,> 100 µM
same,TGI,BT-549 breast,> 100 µM
same,TGI,SF-268 CNS,> 100 µM
same,TGI,SF-295 CNS,> 100 µM
same,TGI,SF-539 CNS,> 100 µM
same,TGI,T-47D breast,> 100 µM
same,TGI,COLO 205 colon,> 100 µM
CC(=O)C1=C(C)N(c2ccccc2)C2(O)C=CC(=O)C3=C(O)c4ccccc4C(=O)C312 (centres undefined),TGI,SR leukemia,> 100 µM
same,TGI,HCC-2998 colon,25.4 µM
same,TGI,DU-145 prostate,28.5 µM
same,TGI,NCI-H522 lung,36.4 µM
same,TGI,HOP-92 NSCLC,63.9 µM
same,TGI,KM12 colon,40.3 µM
same,TGI,A498 renal,39.4 µM
same,TGI,K-562 leukemia,> 100 µM
same,TGI,MOLT-4 leukemia,> 100 µM
same,TGI,TK-10 renal,46.2 µM
same,TGI,A549 NSCLC,> 100 µM
same,TGI,UO-31 renal,33.7 µM
same,TGI,RPMI-8226 leukemia,> 100 µM
same,TGI,PC-3 prostate,41.5 µM
same,TGI,BT-549 breast,31.8 µM
same,TGI,SF-268 CNS,57.8 µM
same,TGI,SF-295 CNS,38.5 µM
same,TGI,SF-539 CNS,46.7 µM
same,TGI,T-47D breast,76.8 µM
same,TGI,COLO 205 colon,36.8 µM
CCCCCCCCCCCCCCCCOc1ccc(/C=C/C2=[N+](CCCl)CCO2)cc1,TGI,SR leukemia,92.5 µM
same,TGI,HCC-2998 colon,> 100 µM
same,TGI,DU-145 prostate,> 100 µM
same,TGI,NCI-H522 lung,> 100 µM
same,TGI,HOP-92 NSCLC,> 100 µM
same,TGI,KM12 colon,> 100 µM
same,TGI,A498 renal,> 100 µM
same,TGI,K-562 leukemia,> 100 µM
same,TGI,MOLT-4 leukemia,> 100 µM
same,TGI,TK-10 renal,> 100 µM
same,TGI,A549 NSCLC,> 100 µM
same,TGI,UO-31 renal,> 100 µM
same,TGI,RPMI-8226 leukemia,> 100 µM
same,TGI,PC-3 prostate,> 100 µM
same,TGI,BT-549 breast,> 100 µM
same,TGI,SF-295 CNS,> 100 µM
same,TGI,SF-539 CNS,> 100 µM
same,TGI,T-47D breast,> 100 µM
same,TGI,COLO 205 colon,> 100 µM
Cc1nc2cccc([N+](=O)[O-])c2n1CCCN(C)C,TGI,SR leukemia,> 100 µM
same,TGI,HCC-2998 colon,> 100 µM
same,TGI,DU-145 prostate,> 100 µM
same,TGI,NCI-H522 lung,> 100 µM
same,TGI,KM12 colon,> 100 µM
same,TGI,A498 renal,> 100 µM
same,TGI,K-562 leukemia,> 100 µM
same,TGI,TK-10 renal,> 100 µM
same,TGI,A549 NSCLC,> 100 µM
same,TGI,UO-31 renal,> 100 µM
same,TGI,RPMI-8226 leukemia,> 100 µM
same,TGI,PC-3 prostate,> 100 µM
same,TGI,BT-549 breast,> 100 µM
same,TGI,SF-268 CNS,> 100 µM
same,TGI,SF-295 CNS,> 100 µM
same,TGI,T-47D breast,> 100 µM
same,TGI,COLO 205 colon,> 100 µM
NC(=O)CNC(=O)[C@@H]1C[C@@H](OCCC(=O)O)CN1C(=O)OCc1ccccc1,TGI,SR leukemia,> 100 µM
same,TGI,DU-145 prostate,> 100 µM
same,TGI,NCI-H522 lung,> 100 µM
same,TGI,KM12 colon,> 100 µM
same,TGI,A498 renal,> 100 µM
same,TGI,K-562 leukemia,> 100 µM
same,TGI,MOLT-4 leukemia,> 100 µM
same,TGI,TK-10 renal,> 100 µM
same,TGI,A549 NSCLC,> 100 µM
same,TGI,UO-31 renal,> 100 µM
same,TGI,RPMI-8226 leukemia,> 100 µM
same,TGI,PC-3 prostate,> 100 µM
same,TGI,BT-549 breast,> 100 µM
same,TGI,SF-268 CNS,> 100 µM
same,TGI,SF-295 CNS,> 100 µM
same,TGI,T-47D breast,> 100 µM
same,TGI,COLO 205 colon,> 100 µM
O=C(CCc1ccc(O)cc1)NCCCNC(=O)CCc1ccc(O)cc1,TGI,SR leukemia,> 100 µM
same,TGI,HCC-2998 colon,> 100 µM
same,TGI,DU-145 prostate,> 100 µM
same,TGI,NCI-H522 lung,> 100 µM
same,TGI,KM12 colon,> 100 µM
same,TGI,A498 renal,> 100 µM
same,TGI,K-562 leukemia,> 100 µM
same,TGI,MOLT-4 leukemia,> 100 µM
same,TGI,A549 NSCLC,> 100 µM
same,TGI,UO-31 renal,> 100 µM
same,TGI,RPMI-8226 leukemia,> 100 µM
same,TGI,PC-3 prostate,> 100 µM
same,TGI,BT-549 breast,> 100 µM
same,TGI,SF-268 CNS,> 100 µM
same,TGI,SF-295 CNS,> 100 µM
same,TGI,SF-539 CNS,> 100 µM
same,TGI,T-47D breast,> 100 µM
same,TGI,COLO 205 colon,> 100 µM
CSc1ccc2c(cc1=O)[C@@H](NC(=O)c1ccc([N+](=O)[O-])cc1)CCc1cc(O)c(O)c(O)c1-2,TGI,SR leukemia,> 100 µM
same,TGI,HCC-2998 colon,> 100 µM
same,TGI,DU-145 prostate,> 100 µM
same,TGI,NCI-H522 lung,> 100 µM
same,TGI,HOP-92 NSCLC,> 100 µM
same,TGI,KM12 colon,37.4 µM
same,TGI,A498 renal,> 100 µM
same,TGI,K-562 leukemia,> 100 µM
same,TGI,MOLT-4 leukemia,> 100 µM
same,TGI,TK-10 renal,> 100 µM
same,TGI,A549 NSCLC,77.7 µM
same,TGI,UO-31 renal,> 100 µM
same,TGI,RPMI-8226 leukemia,> 100 µM
same,TGI,PC-3 prostate,> 100 µM
same,TGI,BT-549 breast,> 100 µM
same,TGI,SF-268 CNS,> 100 µM
same,TGI,SF-295 CNS,> 100 µM
same,TGI,SF-539 CNS,> 100 µM
same,TGI,T-47D breast,> 100 µM
same,TGI,COLO 205 colon,53.7 µM
COc1ccc(/C=C(/c2ccccc2)c2c(C)cc(C)c(/C(=C\c3ccc(OC)cc3)c3ccccc3)c2N=Nc2cc(C)cc(C)c2)cc1,TGI,SR leukemia,> 100 µM
same,TGI,HCC-2998 colon,> 25.8 µM
same,TGI,DU-145 prostate,> 100 µM
same,TGI,NCI-H522 lung,> 64.1 µM
same,TGI,HOP-92 NSCLC,> 100 µM
same,TGI,KM12 colon,> 71.9 µM
same,TGI,A498 renal,> 100 µM
same,TGI,K-562 leukemia,> 100 µM
same,TGI,MOLT-4 leukemia,> 100 µM
same,TGI,TK-10 renal,> 74.4 µM
same,TGI,A549 NSCLC,> 100 µM
same,TGI,UO-31 renal,> 100 µM
same,TGI,RPMI-8226 leukemia,> 100 µM
same,TGI,PC-3 prostate,> 100 µM
same,TGI,BT-549 breast,> 100 µM
same,TGI,SF-268 CNS,> 100 µM
same,TGI,SF-295 CNS,> 100 µM
same,TGI,SF-539 CNS,> 100 µM
same,TGI,T-47D breast,> 100 µM
same,TGI,COLO 205 colon,24.3 µM
COCn1c(C)c(C)c2c(=O)oc(C)nc21,TGI,SR leukemia,> 100 µM
same,TGI,HCC-2998 colon,> 100 µM
same,TGI,DU-145 prostate,> 100 µM
same,TGI,NCI-H522 lung,> 100 µM
same,TGI,HOP-92 NSCLC,> 100 µM
same,TGI,KM12 colon,> 100 µM
same,TGI,A498 renal,> 100 µM
same,TGI,K-562 leukemia,> 100 µM
same,TGI,MOLT-4 leukemia,> 100 µM
same,TGI,TK-10 renal,> 100 µM
same,TGI,A549 NSCLC,> 100 µM
same,TGI,UO-31 renal,> 100 µM
same,TGI,RPMI-8226 leukemia,> 100 µM
same,TGI,PC-3 prostate,> 100 µM
same,TGI,BT-549 breast,> 100 µM
same,TGI,SF-268 CNS,> 100 µM
same,TGI,SF-295 CNS,> 100 µM
same,TGI,SF-539 CNS,> 100 µM
same,TGI,T-47D breast,> 100 µM
same,TGI,COLO 205 colon,> 100 µM
Nc1[nH]c(=S)c2c(N)n[nH]c2c1C(=O)Nc1ccc(Cl)cc1,TGI,SR leukemia,> 100 µM
same,TGI,HCC-2998 colon,> 100 µM
same,TGI,DU-145 prostate,> 100 µM
same,TGI,NCI-H522 lung,> 100 µM
same,TGI,HOP-92 NSCLC,> 100 µM
same,TGI,KM12 colon,> 100 µM
same,TGI,A498 renal,> 100 µM
same,TGI,K-562 leukemia,> 100 µM
same,TGI,MOLT-4 leukemia,> 100 µM
same,TGI,TK-10 renal,> 100 µM
same,TGI,A549 NSCLC,> 100 µM
same,TGI,UO-31 renal,> 100 µM
same,TGI,RPMI-8226 leukemia,> 100 µM
same,TGI,PC-3 prostate,> 100 µM
same,TGI,BT-549 breast,> 100 µM
same,TGI,SF-268 CNS,> 100 µM
same,TGI,SF-539 CNS,> 100 µM
same,TGI,T-47D breast,> 100 µM
same,TGI,COLO 205 colon,> 100 µM
CCn1c(=O)c2c3cc(OC(C)=O)ccc3oc2c2ccc(OC(C)=O)cc21,TGI,SR leukemia,> 100 µM
same,TGI,HCC-2998 colon,58.2 µM
same,TGI,DU-145 prostate,> 100 µM
same,TGI,NCI-H522 lung,> 100 µM
same,TGI,HOP-92 NSCLC,90.5 µM
same,TGI,KM12 colon,> 100 µM
same,TGI,A498 renal,83 µM
same,TGI,K-562 leukemia,> 100 µM
same,TGI,MOLT-4 leukemia,> 100 µM
same,TGI,TK-10 renal,> 100 µM
same,TGI,A549 NSCLC,> 100 µM
same,TGI,UO-31 renal,83 µM
same,TGI,PC-3 prostate,> 100 µM
same,TGI,BT-549 breast,> 100 µM
same,TGI,SF-268 CNS,> 100 µM
same,TGI,SF-295 CNS,72 µM
same,TGI,SF-539 CNS,94.3 µM
same,TGI,T-47D breast,75.4 µM
same,TGI,COLO 205 colon,55.6 µM
CC(C)(SCc1ccccc1)C(N)C(=O)O (centres undefined),TGI,SR leukemia,> 100 µM
same,TGI,DU-145 prostate,> 100 µM
same,TGI,NCI-H522 lung,> 100 µM
same,TGI,HOP-92 NSCLC,> 100 µM
same,TGI,KM12 colon,> 100 µM
same,TGI,A498 renal,> 100 µM
same,TGI,K-562 leukemia,> 100 µM
same,TGI,MOLT-4 leukemia,> 100 µM
same,TGI,TK-10 renal,> 100 µM
same,TGI,A549 NSCLC,> 100 µM
same,TGI,UO-31 renal,> 100 µM
same,TGI,RPMI-8226 leukemia,> 100 µM
same,TGI,PC-3 prostate,> 100 µM
same,TGI,BT-549 breast,> 100 µM
same,TGI,SF-268 CNS,> 100 µM
same,TGI,SF-295 CNS,> 100 µM
same,TGI,T-47D breast,> 100 µM

# — PubChem BioAssay (NCI)
